According to article PMC8904451, “Novel chalcone-derived pyrazoles as potential therapeutic agents for the treatment of non-small cell lung cancer” (Scientific Reports, 2022):

Columns and labels:
Type in all cases: cell-based, human
[1] = test system: A-549 cells; assay: Western blot of apoptotic and EMT-related proteins
Description: To investigate the potential molecular mechanisms responsible for PCH-1-induced apoptosis in A-549 cells, we measured the expression of apoptosis-related proteins by western blot analysis. […] Next, we determined the role of the antiapoptotic protein Bcl-2 as well as the proapoptotic proteins Bax and Bid in PCH-1-induced cell death in A-549 cells. […] Additionally, we observed Bid cleavage (48 h: *p < 0.01), which was noted as a reduction in full-length Bid protein.
Epithelial-mesenchymal transition (EMT) plays a crucial role in tumorigenesis by promoting cell motility, migration, and metastasis. Thus, we examined the expression of proteins involved in the EMT process by western blot assays. […] The activity of N-cadherin in A-549 cells was reduced by 45% at 24 h (p = 0.0002) and by 50% at 48 h (p = 0.0002), while vimentin activity was reduced by 43% at 24 h (p = 0.005) and by 46% at 48 h (p = 0.004). Additional PCH-1 inhibited Transforming Growth Factor β1 (TGF-β1) induced mesenchymal-like phenotype in A-549 cells, indicating […] of N-cadherin by 66% at 48 h (p = 0.0003), and another EMT effector β-catenin, which was suppressed by 31% at 24 h (p = 0.0275) and by 66% at 48 h (p = 0.0019).
Cells (1.5 × 10^6) were cultured in tissue culture plates for overnight attachment. The cells were then incubated with IC90 of PCH-1 or 1% DMSO for 6, 24, and 48 h, or were co-treatment with 2.5 ng/ml TGF-β1 (Sigma-Aldrich), and IC90 of PCH-1 or 1% DMSO for 24, and 48 h. Subsequently, the cells were collected and lysed in Laemmli buffer with a protease inhibitor cocktail (Roche) and phosphatase inhibitors [NaF (5 mM), β-glycerophosphate (5 mM), and Na3VO4 (1 mM)]. The cells were then sonicated in triplicate (10 s, 30% amplitude) and centrifuged at 16,000×g at 12 °C for 15 min. Protein concentrations were determined using the DC Protein Assay Kit (Bio-Rad). For determining total protein content, the cellular extract was separated by 10% or 12% sodium dodecyl sulfate–polyacrylamide gel electrophoresis (SDS-PAGE) and transferred onto a microporous polyvinylidene difluoride (PVDF) membrane (Bio-Rad). After blocking with 5% (w/v) BSA (Sigma-Aldrich) in 1 × TBST (pH 7.4 and 0.1% Tween-20) for 1 h, the membranes were incubated overnight with primary antibodies at 4 °C, followed by horseradish peroxidase-conjugated secondary antibodies for 1 h. All the used antibodies are listed in Table S1 in the supplementary information. The immunoreactive signals were detected using an enhanced chemiluminescence (ECL) detection reagent kit (Thermo Fisher) and a ChemiDoc XRS + Imaging System (Bio-Rad). The band intensity was measured using Image Lab 5.2 software (Bio-Rad).

[2] = test system: caspase-3/7 in H460 cells; assay: Caspase-3/7 activation by flow cytometry, H460; conditions: IC90
Description: (§1) To explain the type of cell death that cancer cells undergo after treatment with PCH-1, the ability of the compound to activate caspases 3–7 was determined by flow cytometry. […] The most pronounced activation of caspase 3 occurred equally in A-549 and H226 cell lines after 48 h of treatment and was sevenfold greater than that in the vehicle.
(§2) Cells were seeded onto tissue culture plates and allowed to attach for 24 h. Next, the cells were treated with PCH-1 or Etoposide at IC90 concentration for 6, 24, and 48 h. After incubation, the cells were harvested by trypsinization, rinsed twice with PBS, and stained with Annexin V Alexa Fluor™ 488 conjugate (Thermo Fisher, #A13201) for apoptosis assay and with CellEvent™ Caspase-3/7 Green Flow Cytometry Assay Kit (Thermo Fisher, #C10427) for caspase-3/7 activation according to the manufacturer’s protocols. The analysis was performed with Guava EasyCyte 8 cell sorter (Merck Millipore) and FlowJo software v10. Each experiment was repeated independently three times.

[3] = test system: A-549, H226, and H460 cells; assay: Cell cycle distribution by flow cytometry, unsynchronized cells; conditions: IC90, 24 h, vs control
Description: Promising antiproliferative properties of PCH-1 led us to further investigate the effect of this compound on cell cycle distribution. Therefore, cell cycle progression was analyzed by quantifying DNA content using flow cytometry. […] To thoroughly analyze the course of the cycle, A-549 cells were synchronized with a double-thymidine block in the G1 phase and treated with IC90 concentration of PCH-1 for the indicated time. Slight alterations of the division cycle were visible after 2 h of incubation with the compound.
Cells were seeded onto tissue culture plates and allowed to attach for 24 h. Unsynchronized cells were treated with PCH-1 or Etoposide at IC90 concentration for 24 and 48 h, while synchronized cells were treated with PCH-1 or Etoposide at IC90 concentration for 2, 4, 6, 8, and 10 h. Synchronization of the cells was performed as described previously by Chen et al.[77]. Next, the cells were trypsinized, fixed in ice-cold 75% ethanol, and stored overnight at − 20 °C. After centrifugation, the cells were rinsed with PBS and stained with […] PI (Sigma-Aldrich) and […] RNaseA (Thermo Fisher) in PBS for 30 min at RT. The distribution of the cells in different phases of the cell cycle was determined by flow cytometry (Guava EasyCyte 8 cell sorter, Merck Millipore) and FlowJo software v10. Each experiment was repeated independently three times.

[4] = test system: A-549 cells; assay: Wound healing migration assay
Description: To further confirm the antimigratory potential of PCH-1, the wound healing assay was performed on A-549 cells. […] This effect was retained during the entire exposure time, with the highest difference during 18–24 h compared to that in the control group. Finally, the anti-migratory properties of PCH-1 were studied by co-treatment A-549 cells with TGF-β1.
To analyze cell motility, A-549 cells were seeded onto the Ibidi-silicone insert on a cover glass-bottom 24-well plate for live cell imaging and incubated for 24 h. Subsequently, the inserts were dislodged, the cellular debris was removed by washing with RPMI, and the cells were incubated with different concentrations of PCH-1, and/or 2.5 ng/ml TGF-β1 (Sigma-Aldrich) in an imaging chamber (cellVivo incubation system, Olympus) at 37 °C with 5% CO2. Images were captured every 10 min for 20 or 42 h under × 10 magnification using a fluorescence microscope (IX83 Inverted Microscope, Olympus) connected to an XC50 digital color camera (Olympus). The percentage of wound closure was quantified with ImageJ software.

[5] = test system: caspase-3/7 in A-549 cells; assay: Caspase-3/7 activation by flow cytometry, A-549; conditions: IC90
Description: as §1, §2

[6] = A-549 co-treated with 2.5 ng/ml TGF-β1, IC90, 48 h

COc1ccc(C2CC(c3cc4c(cc3OC)OCO4)=NN2C(C)=O)cc1 (stereo not drawn) [PCH-1, 1-[3-(6-methoxy-2H-1,3-benzodioxol-5-yl)-5-(4-methoxyphenyl)-4,5-dihydro-1H-pyrazol-1-yl]ethan-1-one]
Bcl-2 protein level ([1]; A-549, IC90): not changed
Bax protein level ([1]; A-549, IC90, 6, 24, 48 h): significant increase
expression of hTERT ([1]; A-549, IC90, 24 and 48 h): significantly decreased
reduction of N-cadherin ([1]; A-549, IC90, 24 h): 45%
reduction of vimentin ([1]; A-549, IC90, 24 h): 43%
reduction of N-cadherin ([1]; A-549, IC90, 48 h): 50%
reduction of vimentin ([1]; A-549, IC90, 48 h): 46%
suppression of β-catenin, TGF-β1 induced ([1]; A-549 co-treated with 2.5 ng/ml TGF-β1, IC90, 24 h): 31%
reduction of N-cadherin, TGF-β1 induced [1, 6]: 66%
suppression of β-catenin, TGF-β1 induced [1, 6]: 66%
caspase-3/7 activation, increase compared to control, H460 ([2]; 6 h): 3.15 fold
cells with activated caspase 3/7 vs control, H460 ([2]; later exposure): remaining approximately constant
cell cycle arrest [3]: induced cell cycle arrest in the G2/M phase
TGF-β1-induced cell motility (wound closure) ([4]; A-549 + 2.5 ng/ml TGF-β1, 5 µM and 10 µM, 20 h): the wound remained opened
cell migration (wound closure) ([4]; A-549, 10 and 15 µM): significantly reduced the migration of the cells
caspase-3/7 activation, increase compared to control, A-549 ([5]; 6 h): 2.6 fold
activation of caspase 3 vs vehicle, A-549 ([5]; 48 h): sevenfold
cells with activated caspase 3/7 vs control, A-549 ([5]; later exposure): greater than 5.8 times
